Measurements as given in PubChem BioAssay AID179 (DTP/NCI, 2004).
Activity calls are given as the source filed them.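 Rule for the calls: active = compounds giving half or more protection of infected cells from virus-caused growth loss, again on retest; inactive = the rest.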

Test system: CEM cells HIV-1 protection, formazan growth assay
Test: NCI AIDS Antiviral Assay
Conditions: for IC50: measured here: growth of uninfected CEM cells
How it was run: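 Steps: treat uninfected and HIV-1-infected human CEM cells at five drug levels; quantify growth by soluble formazan; retest any compound reaching 50% protection; classify actives from the retest.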

Compound	EC50 [µM]	IC50 [µM]	outcome
CC(C)(C)c1ccc(O)c(C(O)c2cccnc2)c1 (centres undefined)	> 200	61.7	
COC1/C=C/OC2(C)Oc3c(C)c(O)c4c(O)c(c(/C=N/N5CCOCC5)c(O)c4c3C2=O)NC(=O)C(C)=C/C=C/C(C)C(O)C(C)C(O)C(C)C(OC(C)=O)C1C (centres undefined)	> 200	35.5	
CN1CC(=O)N(C)c2nc[nH]c2C1=O			inactive
CNc1nc(SC)nc2c1S(=O)(=O)N=CN2	> 263	> 263	
O=C(Nc1cccc2c1C(=O)c1c(NC(=O)c3ccccc3)ccc(Nc3cccc4c3C(=O)c3ccccc3C4=O)c1C2=O)c1ccccc1	> 200	120	
COc1ccc(-n2c(C)nc3ccc(NC4OCC(OC(C)=O)C(OC(C)=O)C4OC(C)=O)cc3c2=O)cc1 (centres undefined)	> 200	123	
O=C(COc1ccccc1Cl)N1N=C(c2ccccc2)CC1(O)c1ccccc1 (centres undefined)	> 24.5	> 24.5	
COc1cc(C2(O)c3ccccc3C3=NCCN32)cc(OC)c1OC (centres undefined)	> 200	> 200	
CC(C)(C)OC(=O)C1C(=O)C(C(=O)OC(C)(C)C)C23CCCCC12C(C(=O)OC(C)(C)C)C(=O)C3C(=O)OC(C)(C)C (centres undefined)	> 30.2	> 30.2	
Nc1nc(NC2C3CC4CC(C3)CC2C4)nc(-c2n[nH]c(=S)o2)n1 (centres undefined)	> 55	28.2	
CN(C(=O)CC(=O)CP(=O)(c1ccccc1)c1ccccc1)c1ccccc1	> 200	135	
Cn1cc(NC(=O)c2cc(NC(=O)c3cc(NC=O)cn3C)cn2C)cc1C(=O)NCCC(=N)N	> 513	30.2	
CC1(CO)CC(O)C(n2cnc3c(N)ncnc32)O1 (centres undefined)	> 5.13	> 5.13	
CCOC(=O)c1ccc(N2CCN(c3c(C)nc(N)nc3N)CC2)cc1	> 100	0.0316	
CCN1C[C@]2(OC(=O)c3ccccc3NC(C)=O)CCC(OC)C34[C@@H]1[C@@](O)(C[C@@H]32)[C@@]1(O)C[C@H](OC)[C@@H]2C[C@@H]4[C@]1(O)C2OC (some centres undefined)			inactive
O=C(O)c1ccsc1Cc1cccs1	> 200	> 200	
COc1ccc(NC(=S)Nc2c(C)n(C)n(-c3ccccc3)c2=O)cc1	> 200	> 200	
NC(CCCC(N)P(=O)(O)O)C(=O)O (centres undefined)			inactive
CC(=O)c1ccc2c3c(ccc([N+](=O)[O-])c13)C(=O)OC2=O	> 200	30.9	
CN(C)c1ccc(/C=C(\C#N)c2cccc(Cl)c2)cc1	> 200	0.0631	
O=c1[nH]nc(-c2ccccc2)n1/N=C/c1ccccc1Cl	> 200	74.1	

Compound	EC50 [µM]	IC50 [µM]	outcome
C/C(=N\NS(=O)(=O)c1ccc(C)cc1)C(CN1CCOCC1)C(c1ccccc1)c1c(O)c2ccccc2oc1=O (centres undefined)	> 42.7	19.1	
O=C(Nc1cc2c(cc1OCc1ccccc1)N(S(=O)(=O)c1ccccc1)[C@@H]1c3ccccc3OC[C@H]21)c1ccccc1	> 200	> 200	
NC1=Nc2ccccc2Sc2nccn21	> 200	28.8	
Cc1ccc2c(c1)C1(OC(=O)c3ccccc31)c1ccc(F)cc1O2 (centres undefined)	> 91.2	22.9	
CC1CCC(=O)C(C(=O)CC2CC(=O)N(C)C(=O)C2)C1 (centres undefined)	> 126	> 126	
O=C1NC(=O)C2C1c1[nH]c3ccccc3c1C1CCCC12 (centres undefined)			inactive
Fc1cc(F)c(F)c(S)c1F			active
FC(F)(Oc1ccc2oc3ccccc3c2c1)c1nc2ccccc2o1	> 200	33.9	
C=C(C)C(=O)OC1C[C@H](COC(C)=O)C2CC=C(C)C2C2OC(=O)C(=C)[C@H]12 (some centres undefined)	> 200	1.05	
COc1cc2cc(C(=O)N3CC(CCl)c4c3cc(NC(=O)C(C)Nc3c([N+](=O)[O-])cc(C(=O)NCCN(C)C)cc3[N+](=O)[O-])c3ccccc43)[nH]c2c(OC)c1OC (centres undefined)	> 0.1	0.0575	
OC1C(O)C2(C[C@H]1Br)OC(COCc1ccccc1)[C@@H](COCc1ccccc1)O2 (some centres undefined)			inactive
COc1cc(C2c3cc4c(cc3OC(NNC(N)=O)C2C)OCO4)cc(OC)c1OC (centres undefined)	> 200	0.331	
N/N=c1\c2ccccc2c2cc3c(cc12)/c(=N/N)c1ccccc13	> 17	> 17	
COc1cc2oc(-c3ccccc3)cc(=O)c2c(O)c1C	> 33.1	> 33.1	
CCOP(=O)(OCC)C(Nc1cccc(F)c1)c1ccc(N(C)C)cc1 (centres undefined)	> 200	97.7	
COc1ccc(Nc2ccc([N+](=O)[O-])c3nonc23)cc1	> 77.6	> 77.6	
CCCCCCC/C=N/[N-]C(=O)c1ccncc1.CCCCCCC/C=N\[N-]C(=O)c1ccncc1.[Ni+2]	> 100	64.6	
Cc1ccc(N=C2SC(=S)N(CCC[N+](C)(C)C)C2=Nc2ccc(C)cc2)cc1	> 200	14.1	
NCc1ccc(-c2ccc(CN)s2)s1	> 28.2	13.2	
CCOC(=O)NNC(=O)C1CSC(c2ccccc2)N1C(C)=O (centres undefined)	> 200	> 200	
O=C(O)c1ccccc1C(=O)c1ccccc1	> 200	> 200	

Compound	EC50 [µM]	IC50 [µM]	outcome
CSc1nn(C)cc2nc(C)nc1-2	> 200	> 200	
CCOC(=O)N1C=NC23C(c4ccccc4)C(c4ccccc4)C12C(=O)N(C)C(=O)N3C (centres undefined)	> 22.9	> 22.9	
CC(C)CCC[C@@H](C)[C@H]1CC[C@H]2[C@@H]3CC[C@H]4CC5(C[C@]4(C)[C@H]3CC[C@]12C)Nc1ccccc1S5 (some centres undefined)	> 20	> 20	
COC(=O)/C(=N\N)C(C(=O)C(=O)Nc1nc(=S)[nH][nH]1)c1nc2ccc([N+](=O)[O-])cc2[nH]c1=O (centres undefined)	> 75.9	> 75.9	
O[C@@H]1CCC[C@@H]2NC[C@@H](c3ccc4c(c3)OCO4)[C@H]12	> 200	> 200	
Nc1ccc(-c2ncc3cc(-c4cccc(-c5cc6cnc(-c7ccc(N)cc7)nc6c6ccccc56)c4)c4ccccc4c3n2)cc1	> 200	> 200	
CP1(=S)CC(Cl)=C2CCCCC21 (centres undefined)			inactive
Nc1cc2nc(=O)cc3n2c(n1)SC3	> 67.6	> 67.6	
C=C1C(=O)OC2C[C@H](C)C3CC(=O)C(C)=C3CC12 (some centres undefined)	> 380	6.61	
CC(=O)[O-].CC(=O)[O-].O=C(N/N=C/c1cc(Cl)cc(Cl)c1[OH2+])c1ccncc1.[Mn+2]			inactive
O=Nc1ccc(Cl)cc1C(=O)c1ccccc1	> 200	32.4	
Cc1ccccc1-n1c(=S)n(-c2ccccn2)c2nc3ccccc3nc1/c2=N/Nc1ccccn1	> 162		
O=C1C=C(N2CC2)C(=O)C=C1N1CC1	> 0.2	0.0141	
COC(=O)/C(=N/NC(C)(C)C)C(C(=O)C=C(C)C)C(=O)C(=O)Nc1ccc(Cl)cc1C (centres undefined)	> 398	269	
CCOC(=O)c1c2ccccc2n2c(=O)n(-c3ccc(OC)cc3)nnc12	> 57.5	32.4	
CCn1c(N)c(N=O)c(=O)[nH]c1=O	> 200	> 200	
CC(=O)OC1C2CCC3CC2C2(SCCS2)C31 (centres undefined)	> 200	> 200	
Nc1ncnc2c(C3OC(CO)C(O)C3O)nsc12 (centres undefined)	> 200		
O=S1(=O)C[C@H](O)[C@H](O)CS1	8.32	75.9	
O=C(CN1CCOCC1)CC(O)(C(F)(F)F)C(F)(F)F	> 200	95.5	
